Source: ChEMBL document CHEMBL1124125, “6-(Alkylamino)-3-aryl-1,2,4-triazolo[3,4-a]phthalazines. A new class of benzodiazepine receptor ligands” (J Med Chem, 1988)

Experiments:
Mus musculus [1] = assay: Anticonvulsant activity when lethal dose of strychnine given subcutaneously in mouse; type: ADME, organism-based; conditions: in vivo, sc
Rattus norvegicus = assay: Activity was measured by rotarod test by peroral administration in rat; type: functional; conditions: po
Mus musculus [2] = assay: Activity was measured by rotarod test by intraperitoneal administration in mouse.; type: functional; conditions: ip
Mus musculus [3] = assay: Anticonvulsant activity when bicuculline given subcutaneously in mouse; type: functional; conditions: sc
Mus musculus [4] = species: Mus musculus; assay: Anticonvulsant activity when maximal electroshock is induced in mouse; type: functional

SMILES: CNC1=Nc2ccc(Cl)cc2C(c2ccccc2)=[N+]([O-])C1 [CHLORDIAZEPOXIDE]
- ED50 (Mus musculus [1]): 7.5 mg/kg
- ED50 (Rattus norvegicus): 68.4 mg/kg
- ED50 (Mus musculus [2]): 11 mg/kg
- ED50 (Mus musculus [3]): 4.7 mg/kg
- ED50 (Mus musculus [4]): 23 mg/kg
